Source: US9968583B2, “Method of manufacture of liposome composition” (EISAI R & D MANAGEMENT CO., LTD., priority 2009, dated 2018)
Counter-ions that a name gives are not always drawn. Like-named read-outs stand apart in the source and are kept apart here. One block for each molecule: values may come before it.

What was measured:
[1] = tested on: WiDr, human colon cancer cell line; assay: Antitumor activity of eribulin mesylate in WiDr cancer-bearing nude mice (Embodiment 12, FIG. 5); type: in vivo; details: 2 mg/kg; caudal vein, 2 times in 7-day intervals; five mice per group
Experimental: WiDr, which is a human colon cancer cell line, was cultured and grown in a 10% bovine fetal serum-containing RPMI1640 culture. The cells were separated from the flask using 0.05% Trypsin-EDTA solution and collected. After washing with PBS, the cells were suspended in Hank's Balanced Salt Solution (manufactured by Gibco BRL Co. Ltd.) so as to be 5×10^7 cells/mL and kept on ice. 0.1 mL of cell suspension liquid were subcutaneously injected in the right ventral portion of 7-week old nude mice (Charles River Laboratories Japan, Inc.). Each mouse was observed daily, and notes were made appropriately in cases where abnormal conditions were found. Calipers were used to measure the tumor size over time, and the tumor size was calculated based on the calculation formula: major axis×(minor axis squared)÷2. At the point when the tumor size was 100 to 200 mm^3, the mice were separated into groups such that the average values of the tumor sizes and the mouse body weights were uniform among the test groups (five mice per test group), and the drug was administered into the caudal vein (0.2 mL/20 g; 2 times in 7-day intervals).

[2] = Eribulin mesylate blood plasma and tumor tissue PK in LOX cancer-bearing mice (Embodiment 11); type: in vivo; details: female, NU/NU nude, mouse, iv
Experimental: A blood sample was taken and tumor tissue extraction was carried out with a cardiac puncture at fixed periods after administration (15 minutes, 30 minutes, 1, 2, 4, 8, 12, 24, 36, and 48 hours) (n=3). The blood was sampled in a test tube containing heparin, and within 30 minutes of the sampling, the blood was separated by centrifuging at 1,500×g for 10 minutes at 4° C. to obtain the blood plasma. All of the tumor tissue was extracted, washed with PBS, and wiped with water-absorbent paper, and then the tissue weight was immediately weighed. The tissue was placed in a test tube and cooled in ice water, and then stored at −80° C. until analysis was carried out.
The PK parameters were calculated using non-compartment model analysis software (WinNonlin version 5.0.1).

[3] = Maximum tolerance dose of eribulin mesylate free bodies; type: in vivo; details: free body of eribulin mesylate, caudal vein, nude mice
[4] = tested on: ACHN, human renal cancer cell line; assay: Antitumor activity of eribulin mesylate in ACHN cancer-bearing nude mice (Embodiment 15, FIG. 8); type: in vivo; details: free body 2 mg/kg, 3 mg/kg and 4 mg/kg, 3 times in 7-day intervals, 45 days after the start of administration
Experimental: ACHN (obtained from the American Type Culture Collection), which is a human renal cancer cell line, was cultured and grown in a 10% bovine fetal serum-containing MEM culture. The cells were separated from the flask using 0.05% Trypsin-EDTA solution and collected. After washing with PBS, the cells were suspended in PBS so as to be 5×10^7 cells/mL and then kept on ice. 0.1 mL of cell suspension liquid was subcutaneously injected in the right ventral portion of 6-week old nude mice (Charles River Laboratories Japan, Inc.). Each mouse was observed daily, and notes were made appropriately in cases where abnormal conditions were found. Calipers were used to measure the tumor size over time, and the tumor size was calculated based on the calculation formula: major axis×(minor axis squared)÷2. At the point when the tumor size was 150 to 200 mm^3, the mice were separated into groups such that the average values of the tumor sizes and the mouse body weights were uniform among the test groups (five mice per test group), and the drug was administered into the caudal vein (0.2 mL/20 g; 3 times in 7-day intervals).

[5] = tested on: FaDu, human pharyngeal squamous cell carcinoma line; assay: Antitumor activity of eribulin mesylate in FaDu cancer-bearing nude mice (Embodiment 13, FIG. 6); type: in vivo; details: 4.0 mg/kg free bodies, caudal vein, 3 times in 7-day intervals
Experimental: FaDu (obtained from the American Type Culture Collection), which is a human pharyngeal squamous cell carcinoma line, was cultured and grown in a 10% bovine fetal serum-containing MEM culture. The cells were separated from the flask using 0.05% Trypsin-EDTA solution and collected. After washing with PBS, the cells were suspended in PBS so as to be 5×10^7 cells/mL and then kept on ice. 0.1 mL of cell suspension liquid were subcutaneously injected in the right ventral portion of 6-week old nude mice (Charles River Laboratories Japan, Inc.). Each mouse was observed daily, and notes made appropriately in cases where abnormal conditions were found. Calipers were used to measure the tumor size over time, and the tumor size was calculated based on the calculation formula: major axis×(minor axis squared)÷2. At the point when the tumor size was 100 to 200 mm^3, the mice were separated into groups such that the average values of the tumor sizes and the body weights of mice were uniform among the test groups (five mice per test group), and the drug was administered into the caudal vein (0.2 mL/20 g; 3 times in 7-day intervals).

[6] = tested on: FaDu, human pharyngeal squamous cell carcinoma line; assay: Antitumor activity of eribulin mesylate in FaDu cancer-bearing nude mice (Embodiment 14, FIG. 7); type: in vivo; details: 4.0 mg/kg free bodies, caudal vein, 3 times in 7-day intervals
Experimental: FaDu (obtained from the American Type Culture Collection), which is a human pharyngeal squamous cell carcinoma line, was cultured and grown in a 10% bovine fetal serum-containing MEM culture. The cells were separated from the flask using 0.05% Trypsin-EDTA solution and collected. After washing with PBS, the cells were suspended in PBS so as to be 5×10^7 cells/mL and kept on ice. 0.1 mL of cell suspension liquid was subcutaneously injected in the right ventral portion of 6-week old nude mice (Charles River Laboratories Japan, Inc.). Each mouse was observed daily, and notes were made appropriately in cases where abnormal conditions were found. Calipers were used to measure the tumor size over time, and the tumor size was calculated based on the calculation formula: major axis×(minor axis squared)÷2. At the point when the tumor size was 100 to 200 mm^3, the mice were separated into groups such that the average values of the tumor sizes and the mouse body weights were uniform among the test groups (five mice per test group), and the drug was administered into the caudal vein (0.2 mL/20 g; 3 times in 7-day intervals).

[7] = complex with HP-β-cyclodextrin, Non-patent Literature 6, cited from earlier work
[8] = tested on: WiDr, human colon cancer cell line; assay: Therapeutic effect of E7107 on tumor growth in WiDr cancer-bearing nude mice (Embodiment 10); type: in vivo; details: 2.5 mg/kg single dose into caudal vein; 5 days after administration
Experimental: (§1) WiDr (obtained from Dainippon Sumitomo Pharma Co., Ltd.), which is a human colon cancer cell line, was cultured and grown in a 10% bovine fetal serum-containing RPMI1640 culture. The cells were separated from the flask using 0.05% Trypsin-EDTA solution and collected. After washing with PBS, the cells were suspended in Hank's Balanced Salt Solution (manufactured by GIBCO) so as to be 5×10^7 cells/mL and kept on ice. 100 μL of cell suspension liquid was subcutaneously injected in the right ventral portion of 6- to 8-week old nude mice (CLEA Japan, Inc.). Each mouse was observed daily, and notes were made appropriately in cases where abnormal conditions were found. Calipers were used to measure the tumor size over time, and the tumor size was calculated based on the calculation formula: major axis×(minor axis squared)÷2. Moreover, the mouse body weight was also measured over time. At the point when the tumor size was 100 to 200 mm^3, the mice were separated into groups such that the average values of the tumor sizes and the mouse body weights were uniform among the test groups (five mice per test group). […]
(§2) The tumor-growth suppression effect and the body weight loss 5 days after administration were statistically analyzed by a parametric method. […]

[9] = Body weight of WiDr cancer-bearing nude mice (Embodiment 10); type: in vivo; details: average body weight; 2.5 mg/kg single dose; 5 days after administration
Experimental: as §1, §2

[10] = Measurement of the entrapment ratio (ultracentrifugation, HPLC of active compound in the filtrate); type: physicochemical; details: E7107, internal phase 250 mM HP-β-cyclodextrin/100 mM citric acid (pH=5.5)
Experimental: The entrapment ratio was determined as described below.
The entrapment ratio was calculated using the formula below.

[11] = blood plasma, 1.0 mg/kg into caudal vein, LOX cancer-bearing mice
[12] = tumor tissue, 1.0 mg/kg into caudal vein, LOX cancer-bearing mice

SMILES: C=C1C[C@@H]2CC[C@@]34C[C@H]5O[C@H]6[C@@H](O3)[C@H]3O[C@H](CC[C@@H]3O[C@H]6[C@H]5O4)CC(=O)C[C@@H]3[C@@H](OC)[C@@H](C[C@H](O)CN)O[C@H]3C[C@H]3O[C@@H](CC[C@@H]1O2)C[C@@H](C)C3=C [eribulin mesylate]
- Complete disappearance of the tumor / mice completely healed [1]: 2 out of 5
- MRT [2, 11]: 3.3 h
- clearance [2, 11]: 2.42 L/h/kg
- half-life [2, 11]: 3.7 h
- Vd ([2]; blood plasma, 1.0 mg/kg into caudal vein, LOX cancer-bearing mice, read-out: Vss): 8.03 L/kg
- AUC(0-inf) [2, 12]: 6.29 µg·h/mL
- AUC(0-t) [2, 12]: 4.65 µg·h/mL
- Cmax [2, 12]: 323 ng/g
- MRT [2, 12]: 27.7 h
- Tmax [2, 12]: 0.25 h
- half-life [2, 12]: 17.8 h
- AUC(0-inf) ([2]; plasma, 1 mg/kg): 0.365 µg·h/mL
- AUC(0-t) ([2]; plasma, 1 mg/kg): 0.363 µg·h/mL
- Maximum tolerance dose [3]: 4 mg/kg
- Maximum tolerance dose ([3]; listed as free bodies): 4.0 mg/kg
- Tumor volume versus the untreated group [4]: no significant difference
- Tumor-reducing effect [5]: tumor-reducing effect was not obtained
- Tumor-reducing effect [6]: tumor-reducing effect was not obtained

SMILES: CC(C(=O)O)c1cccc(C(=O)c2ccccc2)c1 (stereo not drawn) [ketoprofen]
- Entrapment ratio ([7]; MLVs (multilamellar vesicles)): approximately 75%
- Entrapment ratio ([7]; SUVs (small unilamellar vesicles)): approximately 55%

- Entrapment ratio (%) ([10]; 5° C., 5 minutes): 0%
- Entrapment ratio (%) ([10]; 5° C., 1 hour): 0%
- Entrapment ratio (%) ([10]; 5° C., 6 hours): 0%
- Entrapment ratio (%) ([10]; 20° C., 1 minute): 0%
- Entrapment ratio (%) ([10]; 20° C., 5 minutes): 0%
- Entrapment ratio (%) ([10]; 20° C., 1 hour): 13.1%
- Entrapment ratio (%) ([10]; 20° C., 6 hours): 49.6%
- Entrapment ratio (%) ([10]; 40° C., 1 minute): 4.1%
- Entrapment ratio (%) ([10]; 40° C., 5 minutes): 87.5%
- Entrapment ratio (%) ([10]; 50° C., 1 minute): 56.8%
- Entrapment ratio (%) ([10]; 60° C., 1 minute): 99.2%
SMILES: CCC(O)C(C)C1OC1CC(C)(O)/C=C/C=C(\C)C1OC(=O)CC(O)CCC(C)(O)C(OC(=O)N2CCN(C3CCCCCC3)CC2)/C=C/C1C (stereo not drawn) [E7107, (8E,12E,14E)-7-{(4-cycloheptylpiperazin-1-yl)carbonyl}oxy-3,6,16,21-tetrahydroxy-6,10,12,16,20-pentamethyl-18,19-epoxytricosa-8,12,14-trien-11-olide]
- Tumor (mm^3) [8]: 204.34 mm^3
- Body weight [9]: 20.32 g
